Values joined by “and” are separate entries in the source; they are usually repeats but may differ in a detail not shown here. Equal values may be shown once. “Also recorded” adds a separate entry of the source. Read-outs that look alike come from different tables or passages of the source.
Experiments:
[1] = tested on: MLKL; experiment: Western blot of pMLKL (S358) in TSZ-treated HT29 cells; format: cell-based, human; settings: Nec-1s 10 µM, Fer-1 1 µM, Nec-1f 10 µM
Protocol: (§1) To induce necroptosis in a human cell line, HT29 cells were stimulated at the indicated time points with 20 ng/ml human TNFα (Biolegend), 1 μM SMAC-mimetics (Birinapant, Chemietek), and 20 μM zVAD-fmk (Selleckchem, herein referred to as zVAD). For the induction of necroptosis in NIH3T3 cells, cells were incubated with 20 ng/ml TNF-α and 20 μM zVAD for indicated time points. […] Cells were seeded in six-well plates or petri dishes. […] After indicated time points, cells were collected and prepared for flow cytometry, immunoblotting, and/or LDH release assays.
(§2) Cells were lysed in ice-cold 10 mM Tris-HCl, pH 7.5, 50 mM NaCl, 1% Triton X-100, 30 mM sodium pyrophosphate, 50 mM NaF, 100 μM Na3VO4, 2 μM ZnCl2, and 1 mM phenylmethylsulfonyl fluoride (PMSF, modified Frackelton buffer) for 30 min on ice. Insoluble material was removed by centrifugation (14 000×g, 30 min, 4 °C). Protein concentration was determined using a commercial Bradford assay kit according to the manufacturer’s instructions (Thermo Fisher). Equal amounts of protein (typically 30 μg per lane) were resolved on a 4%−15% gradient SDS/PAGE gel and transferred to a PVDF membrane (BIO-RAD). Primary antibody incubation was performed for anti-pS166-RIPK1 (Cell Signaling, Cat# 65746, 1:1000 dilution), anti-pS358-MLKL, (Abcam, ab187091, 1:1000 dilution), anti-MLKL (Genetex, GTX107538, 1:1000 dilution) and anti-β-Actin (Cell Signaling, Cat# 3700S, 1:1000 dilution). Secondary antibodies (anti-mouse, HRP-linked antibody, Cell Signaling, Cat# 7076S; anti-rabbit, HRP-linked antibody, Cell Signaling, Cat# 7074S) were applied at concentrations of 1:5.000 (also see Supplementary Table 1 for details). Proteins were then visualized by enhanced chemiluminescence (ECL; Amersham Biosciences).

[2] = tested on: RIPK1; experiment: Western blot of pRIPK1 (S166) in TSZ-treated HT29 cells; format: cell-based, human; settings: Nec-1s 10 µM, Fer-1 1 µM, Nec-1f 10 µM
Protocol: as §1, §2

[3] = tested on: freshly isolated primary murine renal tubules; experiment: RSL3-induced LDH release of freshly isolated kidney tubules; format: cell-based; settings: RSL3 2 h; for LDH release: freshly isolated kidney tubules, 5 mM glycine, alone (DMSO) or with Fer-1 or Nec-1f; for Effect on RSL3-induced LDH release: freshly isolated tubules, glycine medium
Protocol: The LDH release of cells or of freshly isolated kidney tubules was measured according to manufacturers’ instructions at indicated time points. In brief, an aliquot of the supernatant was taken and Lysis Solution was added for 45 min to induce maximal LDH release before another aliquot of the supernatant was taken. Subsequently, the supernatants were incubated with CytoTox 96® Reagent for 15 min protected from light at room temperature before adding Stop Solution. Absorbance was measured at 490 nm.
Primary murine renal tubules were isolated following a modified previously established protocol. […] Kidney slices of each kidney were transferred in 2 ml reaction tube containing 2 mg/ml collagenase type II in incubation solution (48 μg/ml trypsin inhibitor, 25 μg/ml DNAse I, 140 mM NaCl, 0.4 mM KH2PO4, 1.6 mM K2HPO4 · 3 H2O, 1 mM MgSO4 · 7 H2O, 10 mM CH3COONa · 3 H2O, 1 mM α-ketoglytarate and 1.3 mM Ca-gluconate) and digested for 5 min at 37 °C, 850 rpm. Due to the presence of damaged tubules, the first resulting supernatant was discarded and 1 ml of 2 mg/ml collagenase type II in incubation solution was added to the kidney slices and digested for 5 min at 37 °C, 850 rpm. The supernatant was collected and transferred in a 2 ml reaction tube containing 1 ml ice-cold sorting solution (0.5 mg/ml bovine albumin in incubation solution). The reaction tubes were left on ice for the tubules to precipitate. The supernatant was removed and the tubules were washed twice with ice-cold incubation solution. Once the tubules precipitated the supernatant was removed and the ice-cold sorting solution was added (the volume was adjusted depending on the number of samples needed for the experiment). Tubules were distributed in a twenty-four-well plate containing Dulbecco’s Modified Eagle Medium F-12 Nutrient Mixture without phenol red (DMEM/F12, Thermo Fisher), supplemented with 0.01 mg/ml recombinant human insulin, 5.5 μg/ml human transferrin, 0.005 μg/ml sodium selenite (Na2SeO3) (ITS without linoleic acid, Sigma Aldrich), 50 nM hydrocortisone, 100 U/ml penicillin, and 100 μg/ml streptomycin (Pen/Strep, Thermo Fisher).
All of the experiments performed contain a negative control to assess LDH release at 0 h of incubation as a quality control. No more than 10% LDH release in these negative controls was tolerated. […] Isolated murine renal tubules were placed in twenty four-well plates containing the respective agents diluted in Dulbecco’s Modified Eagle Medium F-12 Nutrient Mixture without phenol red (DMEM/F12, Thermo Fisher), supplemented with 0.01 mg/ml recombinant human insulin, 5.5 μg/ml human transferrin, 0.005 μg/ml Na2SeO3 (ITS without linoleic acid, Sigma Aldrich), 50 nM hydrocortisone, 100 U/ml penicillin, and 100 μg/ml streptomycin (Pen/Strep, Thermo Fisher). […]

[4] = tested on: C57Bl/6 N mice; experiment: Bilateral kidney ischemia-reperfusion injury, severe model (38 min ischemia), survival; settings: single dose 2 mg/kg body weight before reperfusion
[5] = both, microsomes, 2 µM, pH 7.4
[6] = target: A2A(h) (Homo sapiens, UniProt P29274); experiment: Off-target radioligand binding screen; settings: read-out: A2A(h) (#): inhibition of radioligand binding
Sequence of A2A(h) (P29274 whole entry): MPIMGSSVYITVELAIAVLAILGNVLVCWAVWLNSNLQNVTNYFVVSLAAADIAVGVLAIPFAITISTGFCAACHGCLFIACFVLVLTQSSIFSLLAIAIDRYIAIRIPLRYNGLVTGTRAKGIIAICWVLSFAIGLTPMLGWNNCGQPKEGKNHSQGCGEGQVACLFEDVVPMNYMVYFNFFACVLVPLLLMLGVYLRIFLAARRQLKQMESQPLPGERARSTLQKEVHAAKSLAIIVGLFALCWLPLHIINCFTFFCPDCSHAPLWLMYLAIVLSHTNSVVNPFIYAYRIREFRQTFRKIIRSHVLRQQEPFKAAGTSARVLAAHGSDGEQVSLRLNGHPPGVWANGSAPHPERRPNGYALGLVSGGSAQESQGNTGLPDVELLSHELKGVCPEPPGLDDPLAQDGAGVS

[7] = target: CB2(h) (Homo sapiens, UniProt P34972); experiment: Off-target radioligand binding screen; settings: read-out: CB2(h) (#): inhibition of radioligand binding
Sequence of CB2(h) (P34972 whole entry): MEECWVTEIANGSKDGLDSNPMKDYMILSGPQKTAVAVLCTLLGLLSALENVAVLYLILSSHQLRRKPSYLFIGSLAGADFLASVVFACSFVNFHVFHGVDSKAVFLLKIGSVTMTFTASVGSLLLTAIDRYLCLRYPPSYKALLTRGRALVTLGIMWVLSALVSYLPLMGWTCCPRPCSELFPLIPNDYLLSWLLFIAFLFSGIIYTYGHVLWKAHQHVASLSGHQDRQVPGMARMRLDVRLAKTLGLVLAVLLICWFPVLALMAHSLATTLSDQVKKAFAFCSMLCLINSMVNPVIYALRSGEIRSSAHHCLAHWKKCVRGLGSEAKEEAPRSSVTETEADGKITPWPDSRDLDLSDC

[8] = tested on: NMDA; experiment: Off-target radioligand binding screen; settings: Nec-1f 10 µM
[9] = target: M1(h) (Homo sapiens, UniProt P11229); experiment: Off-target radioligand binding screen; settings: read-out: M1(h) ($): inhibition of radioligand binding
Sequence of M1(h) (P11229 whole entry): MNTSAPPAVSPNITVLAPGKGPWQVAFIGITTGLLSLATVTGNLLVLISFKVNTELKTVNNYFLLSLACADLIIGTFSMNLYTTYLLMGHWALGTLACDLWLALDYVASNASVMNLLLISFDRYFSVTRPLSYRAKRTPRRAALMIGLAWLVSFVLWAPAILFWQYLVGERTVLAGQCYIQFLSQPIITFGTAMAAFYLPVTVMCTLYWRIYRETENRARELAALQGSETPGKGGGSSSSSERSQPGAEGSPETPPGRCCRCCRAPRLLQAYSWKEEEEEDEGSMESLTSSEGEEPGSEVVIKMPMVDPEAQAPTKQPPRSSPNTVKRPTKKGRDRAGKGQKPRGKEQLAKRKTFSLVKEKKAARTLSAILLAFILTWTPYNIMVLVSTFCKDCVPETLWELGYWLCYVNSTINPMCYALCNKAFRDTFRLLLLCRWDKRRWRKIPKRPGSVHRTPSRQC

[10] = target: 5-HT2A(h) (Homo sapiens, UniProt P28223); experiment: Off-target radioligand binding screen; settings: read-out: 5-HT2A(h) (#): inhibition of radioligand binding
Sequence of 5-HT2A(h) (P28223 whole entry): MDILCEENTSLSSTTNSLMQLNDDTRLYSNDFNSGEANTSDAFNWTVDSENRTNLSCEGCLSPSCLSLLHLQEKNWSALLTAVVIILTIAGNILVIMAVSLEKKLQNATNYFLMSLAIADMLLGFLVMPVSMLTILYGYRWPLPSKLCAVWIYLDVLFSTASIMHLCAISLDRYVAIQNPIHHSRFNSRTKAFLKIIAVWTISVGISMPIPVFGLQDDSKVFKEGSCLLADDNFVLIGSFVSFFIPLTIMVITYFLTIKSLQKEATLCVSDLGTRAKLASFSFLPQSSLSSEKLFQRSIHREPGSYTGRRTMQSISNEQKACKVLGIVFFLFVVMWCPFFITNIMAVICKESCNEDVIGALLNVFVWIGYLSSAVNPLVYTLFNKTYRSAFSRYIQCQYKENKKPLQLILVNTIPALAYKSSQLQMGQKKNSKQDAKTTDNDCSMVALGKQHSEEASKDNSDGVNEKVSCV

[11] = target: V1a(h) (Homo sapiens, UniProt P37288); experiment: Off-target radioligand binding screen; settings: read-out: V1a(h) (#): inhibition of radioligand binding
Sequence of V1a(h) (P37288 whole entry): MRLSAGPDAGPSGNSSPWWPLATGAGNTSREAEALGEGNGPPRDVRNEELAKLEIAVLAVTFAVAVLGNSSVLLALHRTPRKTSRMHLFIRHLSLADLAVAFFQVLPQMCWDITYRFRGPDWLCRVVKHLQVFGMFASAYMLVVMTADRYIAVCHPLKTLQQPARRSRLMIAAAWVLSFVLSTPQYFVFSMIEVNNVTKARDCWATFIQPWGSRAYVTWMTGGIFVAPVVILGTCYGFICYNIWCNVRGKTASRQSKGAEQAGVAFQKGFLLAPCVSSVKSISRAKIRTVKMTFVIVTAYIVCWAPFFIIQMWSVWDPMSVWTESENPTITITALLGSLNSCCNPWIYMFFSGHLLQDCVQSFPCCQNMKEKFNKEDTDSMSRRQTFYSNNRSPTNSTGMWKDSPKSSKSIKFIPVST

SMILES	Phosphorylation of MLKL (pS358), western blot [1]	Phosphorylation of RIPK1 at S166, western blot [2]	LDH release [3]	Effect on RSL3-induced LDH release [3]	Survival after severe renal IRI vs vehicle (Kaplan-Meier, words) [4]	Human microsomal stability, parent compound remaining ([5]; 0 h) [%]	Human microsomal stability, parent compound remaining ([5]; 7 min) [%]	Human microsomal stability, parent compound remaining ([5]; 0.25 h) [%]	Human microsomal stability, parent compound remaining ([5]; 25 min) [%]	Human microsomal stability, parent compound remaining ([5]; 40 min) [%]	inhibition at 10 µM [6] [%]	inhibition at 10 µM [7] [%]	NMDA ($): inhibition of radioligand binding [8] [%]	inhibition at 10 µM [9] [%]	inhibition at 10 µM [10] [%]	inhibition at 10 µM [11] [%]
CCOC(=O)c1ccc(NC2CCCCC2)c(N)c1 [Fer-1, ferrostatin-1]	did not prevent MLKL-phosphorylation	RIPK1 S166 phorphorylation was increased	22.94% and 23.84% and 16.99%	significantly attenuated	not statistically significant	–	–	–	–	–	–	–	–	–	–	–
CN1C(=O)C(Cc2c[nH]c3c(Cl)cccc23)NC1=S (stereo not drawn) [Nec-1f]	prevented phosphorylation	prevented phosphorylation at S166 in RIPK1	18.43% and 23.14% and 28.56%	reduction of LDH release; also recorded: significantly attenuated	significantly higher	100	80	65	48	34	-0.3	-12.8	1.4	-7.3	-2.8	29.3

From paper PMC8292346, “Dysfunction of the key ferroptosis-surveilling systems hypersensitizes mice to tubular necrosis during acute kidney injury” (Nature Communications, 2021)
